Results taken from the kinase profiling compilation of Christmann-Franck et al. (2016).

Assays:
Assay in all cases: KINOMEscan competition binding
Details in all cases: compound 10.0 µM
[1] = biological target: RPS6KA2 KD1 (human) (UniProt Q15349)
[2] = biological target: TLK2 (human) (UniProt Q86UE8)
[3] = biological target: NUAK2 (human) (UniProt Q9H093)
[4] = biological target: NEK7 (human) (UniProt Q8TDX7)
[5] = biological target: CDC42BPA (human) (UniProt Q5VT25)
[6] = biological target: RPS6KA6 KD1 (human) (UniProt Q9UK32)
[7] = biological target: CHUK (human) (UniProt O15111)
[8] = biological target: CDK4 CCND3 (human) (UniProt P11802+P30281)
[9] = biological target: SIK3 (human) (UniProt Q9Y2K2)
[10] = biological target: PAK4 (human) (UniProt O96013)
[11] = biological target: PRKG2 (human) (UniProt Q13237)
Chain of PRKG2 (human) (Q13237 whole entry, looked up): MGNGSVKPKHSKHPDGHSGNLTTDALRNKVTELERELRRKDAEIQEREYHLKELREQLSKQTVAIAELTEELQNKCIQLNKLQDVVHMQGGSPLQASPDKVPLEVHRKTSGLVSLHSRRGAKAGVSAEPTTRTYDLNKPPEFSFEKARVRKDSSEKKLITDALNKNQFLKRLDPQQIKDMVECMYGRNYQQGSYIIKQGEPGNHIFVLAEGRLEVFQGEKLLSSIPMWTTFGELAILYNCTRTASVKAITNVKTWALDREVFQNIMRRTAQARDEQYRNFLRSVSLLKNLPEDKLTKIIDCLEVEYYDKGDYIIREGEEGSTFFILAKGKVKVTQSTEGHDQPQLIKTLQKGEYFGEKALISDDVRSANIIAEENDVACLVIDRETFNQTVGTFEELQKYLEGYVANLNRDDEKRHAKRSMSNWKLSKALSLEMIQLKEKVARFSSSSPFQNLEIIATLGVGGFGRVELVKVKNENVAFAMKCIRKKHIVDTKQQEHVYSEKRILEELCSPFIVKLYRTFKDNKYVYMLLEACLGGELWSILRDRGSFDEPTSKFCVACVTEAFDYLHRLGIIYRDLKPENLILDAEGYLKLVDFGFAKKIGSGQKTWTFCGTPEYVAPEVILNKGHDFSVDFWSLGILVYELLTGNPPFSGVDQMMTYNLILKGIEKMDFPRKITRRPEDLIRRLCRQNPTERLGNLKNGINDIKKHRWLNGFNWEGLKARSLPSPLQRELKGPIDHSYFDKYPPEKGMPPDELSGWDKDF

[12] = biological target: CSNK1G2 (human) (UniProt P78368)
[13] = biological target: ALK (human) (UniProt Q9UM73)
Chain of ALK (human) (Q9UM73 whole entry, looked up): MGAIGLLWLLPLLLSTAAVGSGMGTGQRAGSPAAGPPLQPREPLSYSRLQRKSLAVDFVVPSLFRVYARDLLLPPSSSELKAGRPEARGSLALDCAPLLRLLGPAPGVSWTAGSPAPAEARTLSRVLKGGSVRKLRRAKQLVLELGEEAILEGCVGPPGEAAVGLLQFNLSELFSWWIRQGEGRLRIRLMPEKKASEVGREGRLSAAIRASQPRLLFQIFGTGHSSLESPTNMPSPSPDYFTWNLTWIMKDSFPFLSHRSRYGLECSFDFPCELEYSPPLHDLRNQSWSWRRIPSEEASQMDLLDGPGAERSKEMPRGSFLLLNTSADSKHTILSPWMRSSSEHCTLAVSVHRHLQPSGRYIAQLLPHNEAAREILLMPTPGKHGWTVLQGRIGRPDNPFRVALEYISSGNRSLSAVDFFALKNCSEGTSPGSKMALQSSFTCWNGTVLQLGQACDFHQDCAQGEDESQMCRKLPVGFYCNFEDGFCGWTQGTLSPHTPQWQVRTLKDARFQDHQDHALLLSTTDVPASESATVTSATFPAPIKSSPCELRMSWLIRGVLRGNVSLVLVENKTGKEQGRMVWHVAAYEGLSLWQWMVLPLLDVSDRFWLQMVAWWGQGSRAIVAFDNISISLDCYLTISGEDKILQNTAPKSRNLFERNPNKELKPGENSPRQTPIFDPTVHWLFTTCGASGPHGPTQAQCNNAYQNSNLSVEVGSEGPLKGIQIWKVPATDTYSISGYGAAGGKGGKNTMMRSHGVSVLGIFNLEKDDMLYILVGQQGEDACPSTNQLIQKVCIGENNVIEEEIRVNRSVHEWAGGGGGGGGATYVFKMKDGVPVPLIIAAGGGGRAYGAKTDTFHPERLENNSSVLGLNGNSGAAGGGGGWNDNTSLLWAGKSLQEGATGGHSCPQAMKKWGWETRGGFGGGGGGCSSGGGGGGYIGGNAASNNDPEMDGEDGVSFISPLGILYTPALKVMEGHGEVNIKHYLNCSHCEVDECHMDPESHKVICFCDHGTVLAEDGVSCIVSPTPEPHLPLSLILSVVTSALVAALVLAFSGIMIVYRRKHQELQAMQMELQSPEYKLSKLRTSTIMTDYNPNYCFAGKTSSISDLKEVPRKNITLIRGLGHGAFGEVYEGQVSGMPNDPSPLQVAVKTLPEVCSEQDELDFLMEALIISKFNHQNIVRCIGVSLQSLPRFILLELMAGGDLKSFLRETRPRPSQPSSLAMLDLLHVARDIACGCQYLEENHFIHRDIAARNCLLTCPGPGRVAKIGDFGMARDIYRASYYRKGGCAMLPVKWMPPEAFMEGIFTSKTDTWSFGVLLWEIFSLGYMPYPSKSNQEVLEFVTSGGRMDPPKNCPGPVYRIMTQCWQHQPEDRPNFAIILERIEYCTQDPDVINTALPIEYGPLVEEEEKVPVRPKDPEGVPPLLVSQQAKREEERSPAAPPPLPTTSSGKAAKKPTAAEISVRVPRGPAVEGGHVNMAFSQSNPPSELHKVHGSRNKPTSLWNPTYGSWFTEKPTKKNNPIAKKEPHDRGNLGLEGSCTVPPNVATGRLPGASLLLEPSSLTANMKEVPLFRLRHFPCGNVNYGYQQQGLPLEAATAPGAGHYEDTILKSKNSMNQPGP

[14] = biological target: CAMK1G (human) (UniProt Q96NX5)
[15] = biological target: CAMK2G (human) (UniProt Q13555)
[16] = biological target: MAP2K6 (human) (UniProt P52564)
[17] = biological target: ACVR2B (human) (UniProt Q13705)
Chain of ACVR2B (human) (Q13705 whole entry, looked up): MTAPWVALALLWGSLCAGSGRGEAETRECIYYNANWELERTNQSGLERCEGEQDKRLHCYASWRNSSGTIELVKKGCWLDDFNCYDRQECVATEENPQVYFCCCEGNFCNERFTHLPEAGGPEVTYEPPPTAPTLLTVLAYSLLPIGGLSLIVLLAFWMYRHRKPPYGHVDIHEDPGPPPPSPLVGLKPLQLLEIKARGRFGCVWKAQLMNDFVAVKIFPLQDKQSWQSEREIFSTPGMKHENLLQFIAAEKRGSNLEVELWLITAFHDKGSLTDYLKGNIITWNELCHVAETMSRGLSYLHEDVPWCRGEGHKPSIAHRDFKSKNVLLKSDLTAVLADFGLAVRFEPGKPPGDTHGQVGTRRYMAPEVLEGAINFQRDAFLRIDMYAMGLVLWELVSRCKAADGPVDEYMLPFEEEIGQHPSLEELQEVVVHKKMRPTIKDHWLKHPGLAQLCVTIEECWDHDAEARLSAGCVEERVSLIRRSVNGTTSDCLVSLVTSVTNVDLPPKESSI

[18] = biological target: FER (human) (UniProt P16591)
[19] = biological target: ULK2 (human) (UniProt Q8IYT8)
[20] = biological target: EPHA6 (human) (UniProt Q9UF33)
[21] = biological target: TNNI3K (human) (UniProt Q59H18)
[22] = biological target: NEK11 (human) (UniProt Q8NG66)
[23] = biological target: MAPK3 (human) (UniProt P27361)
[24] = biological target: EIF2AK1 (human) (UniProt Q9BQI3)
[25] = biological target: MTOR (human) (UniProt P42345)
[26] = biological target: PHKG2 (human) (UniProt P15735)
[27] = biological target: LTK (human) (UniProt P29376)
[28] = biological target: BMPR1B (human) (UniProt O00238)
[29] = biological target: STK39 (human) (UniProt Q9UEW8)
[30] = biological target: NEK3 (human) (UniProt P51956)
[31] = biological target: DDR1 (human) (UniProt Q08345)
Chain of DDR1 (human) (Q08345 whole entry, looked up): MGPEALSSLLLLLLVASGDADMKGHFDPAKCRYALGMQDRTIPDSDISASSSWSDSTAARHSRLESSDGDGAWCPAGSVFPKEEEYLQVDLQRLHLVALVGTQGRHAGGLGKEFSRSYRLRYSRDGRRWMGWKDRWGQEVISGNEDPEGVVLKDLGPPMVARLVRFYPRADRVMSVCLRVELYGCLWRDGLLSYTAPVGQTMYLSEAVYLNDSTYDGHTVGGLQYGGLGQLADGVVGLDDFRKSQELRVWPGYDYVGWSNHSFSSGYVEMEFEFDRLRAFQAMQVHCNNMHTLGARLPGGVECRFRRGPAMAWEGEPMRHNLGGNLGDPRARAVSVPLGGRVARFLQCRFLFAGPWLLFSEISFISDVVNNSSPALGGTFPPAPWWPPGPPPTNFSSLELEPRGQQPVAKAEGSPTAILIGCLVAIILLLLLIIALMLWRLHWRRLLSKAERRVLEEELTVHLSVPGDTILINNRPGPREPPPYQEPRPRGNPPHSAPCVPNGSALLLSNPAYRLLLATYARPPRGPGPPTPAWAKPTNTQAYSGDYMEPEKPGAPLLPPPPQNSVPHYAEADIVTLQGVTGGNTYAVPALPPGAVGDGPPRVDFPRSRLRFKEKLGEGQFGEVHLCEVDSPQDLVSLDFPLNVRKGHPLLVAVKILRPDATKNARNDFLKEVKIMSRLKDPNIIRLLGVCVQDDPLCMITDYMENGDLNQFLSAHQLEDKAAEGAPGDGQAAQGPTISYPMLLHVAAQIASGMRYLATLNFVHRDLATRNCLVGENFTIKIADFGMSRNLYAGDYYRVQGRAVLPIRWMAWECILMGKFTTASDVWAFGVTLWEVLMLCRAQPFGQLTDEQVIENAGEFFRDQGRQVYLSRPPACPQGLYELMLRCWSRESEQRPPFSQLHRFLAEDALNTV

[32] = biological target: DMPK (human) (UniProt Q09013)
[33] = biological target: ERBB3 (human) (UniProt P21860)
[34] = biological target: PIP5K1C (human) (UniProt O60331)
Chain of PIP5K1C (human) (O60331 whole entry, looked up): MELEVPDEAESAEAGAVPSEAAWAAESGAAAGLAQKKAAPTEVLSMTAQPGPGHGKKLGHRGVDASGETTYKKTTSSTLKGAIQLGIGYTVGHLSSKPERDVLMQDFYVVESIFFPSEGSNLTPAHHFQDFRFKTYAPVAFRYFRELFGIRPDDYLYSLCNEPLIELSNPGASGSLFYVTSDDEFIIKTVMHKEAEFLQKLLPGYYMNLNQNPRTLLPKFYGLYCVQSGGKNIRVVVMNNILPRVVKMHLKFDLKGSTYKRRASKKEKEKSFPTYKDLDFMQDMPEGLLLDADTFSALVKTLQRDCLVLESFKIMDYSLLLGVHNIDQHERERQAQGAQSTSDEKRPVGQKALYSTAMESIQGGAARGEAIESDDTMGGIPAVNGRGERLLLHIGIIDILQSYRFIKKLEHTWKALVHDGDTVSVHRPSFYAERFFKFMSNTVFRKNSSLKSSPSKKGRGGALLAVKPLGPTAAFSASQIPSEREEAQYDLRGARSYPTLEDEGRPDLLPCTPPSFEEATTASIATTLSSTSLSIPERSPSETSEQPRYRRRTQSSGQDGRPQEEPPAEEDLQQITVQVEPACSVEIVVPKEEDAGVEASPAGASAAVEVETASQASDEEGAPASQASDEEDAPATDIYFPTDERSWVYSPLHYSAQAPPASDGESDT

[35] = biological target: CDK3 (human) (UniProt Q00526)
[36] = biological target: MKNK2 (human) (UniProt Q9HBH9)
Chain of MKNK2 (human) (Q9HBH9 whole entry, looked up): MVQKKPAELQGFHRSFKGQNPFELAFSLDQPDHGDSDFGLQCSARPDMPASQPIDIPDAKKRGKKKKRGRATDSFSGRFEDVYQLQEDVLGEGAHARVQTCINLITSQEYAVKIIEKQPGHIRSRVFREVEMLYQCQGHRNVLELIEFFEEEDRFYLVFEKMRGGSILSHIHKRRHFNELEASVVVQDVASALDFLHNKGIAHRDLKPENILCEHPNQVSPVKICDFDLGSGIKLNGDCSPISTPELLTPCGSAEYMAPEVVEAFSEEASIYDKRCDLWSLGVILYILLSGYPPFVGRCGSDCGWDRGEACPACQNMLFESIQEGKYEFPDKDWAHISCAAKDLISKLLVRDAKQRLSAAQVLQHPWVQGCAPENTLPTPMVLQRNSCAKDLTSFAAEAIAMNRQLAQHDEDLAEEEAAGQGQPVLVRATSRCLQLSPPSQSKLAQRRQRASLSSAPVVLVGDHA

[37] = biological target: DYRK1B (human) (UniProt Q9Y463)
[38] = biological target: PAK3 (human) (UniProt O75914)
[39] = biological target: STK25 (human) (UniProt O00506)
[40] = biological target: SYK (human) (UniProt P43405)

Row | Structure (SMILES) | kinase still bound, per cent of control [1] [%] | kinase still bound, per cent of control [2] [%] | kinase still bound, per cent of control [3] [%] | kinase still bound, per cent of control [4] [%] | kinase still bound, per cent of control [5] [%] | kinase still bound, per cent of control [6] [%] | kinase still bound, per cent of control [7] [%] | kinase still bound, per cent of control [8] [%] | kinase still bound, per cent of control [9] [%] | kinase still bound, per cent of control [10] [%] | kinase still bound, per cent of control [11] [%] | kinase still bound, per cent of control [12] [%] | kinase still bound, per cent of control [13] [%] | kinase still bound, per cent of control [14] [%] | kinase still bound, per cent of control [15] [%] | kinase still bound, per cent of control [16] [%] | kinase still bound, per cent of control [17] [%] | kinase still bound, per cent of control [18] [%] | kinase still bound, per cent of control [19] [%] | kinase still bound, per cent of control [20] [%] | also measured
1 | N#C/C(=C1/Nc2ccccc2S1)c1ccnc(NCCc2cccnc2)n1 | 100 | 75 | 100 | 84 | 83 | 28 | 42 | 49 | 100 | 78 | 81 | 77 | 100 | 61 | 78 | 64 | 98 | 100 | 83 | 99 | kinase still bound, per cent of control [21]: 93%; kinase still bound, per cent of control [22]: 100%; kinase still bound, per cent of control [23]: 100%; kinase still bound, per cent of control [24]: 100%; kinase still bound, per cent of control [25]: 34%; kinase still bound, per cent of control [26]: 78%; kinase still bound, per cent of control [27]: 100%; kinase still bound, per cent of control [28]: 18%; kinase still bound, per cent of control [29]: 100%; kinase still bound, per cent of control [30]: 58%; kinase still bound, per cent of control [31]: 100%; kinase still bound, per cent of control [32]: 100%; kinase still bound, per cent of control [33]: 36%; kinase still bound, per cent of control [34]: 8.2%; kinase still bound, per cent of control [35]: 100%; kinase still bound, per cent of control [36]: 0.5%; kinase still bound, per cent of control [37]: 23%; kinase still bound, per cent of control [38]: 100%; kinase still bound, per cent of control [39]: 60%; kinase still bound, per cent of control [40]: 100%
2 | C=CC(=O)Nc1ccc(C(=O)c2sc(Nc3ccc(N4CCN(C)CC4)cc3OC)nc2N)cc1 | 97 | 83 | 49 | 100 | 100 | 50 | 59 | 0.55 | 95 | 95 | 81 | 25 | 8.4 | 8.2 | 1.6 | 96 | 100 | 82 | 9.4 | 88 | kinase still bound, per cent of control [21]: 89%; kinase still bound, per cent of control [22]: 68%; kinase still bound, per cent of control [23]: 100%; kinase still bound, per cent of control [24]: 100%; kinase still bound, per cent of control [25]: 90%; kinase still bound, per cent of control [26]: 3%; kinase still bound, per cent of control [27]: 5.6%; kinase still bound, per cent of control [28]: 86%; kinase still bound, per cent of control [29]: 0%; kinase still bound, per cent of control [30]: 70%; kinase still bound, per cent of control [31]: 100%; kinase still bound, per cent of control [32]: 12%; kinase still bound, per cent of control [33]: 93%; kinase still bound, per cent of control [34]: 44%; kinase still bound, per cent of control [35]: 88%; kinase still bound, per cent of control [36]: 29%; kinase still bound, per cent of control [37]: 2.6%; kinase still bound, per cent of control [38]: 100%; kinase still bound, per cent of control [39]: 100%; kinase still bound, per cent of control [40]: 100%
3 | CC1=C(C(=O)Nc2cc3cn[nH]c3cc2F)C(c2ccc(C(F)(F)F)cc2)CC(=O)N1 (stereo not given) | 95 | 100 | 6 | 78 | 79 | 42 | 100 | 77 | 94 | 85 | 29 | 100 | 77 | 81 | 97 | 95 | 96 | 100 | 85 | 95 | kinase still bound, per cent of control [21]: 78%; kinase still bound, per cent of control [22]: 100%; kinase still bound, per cent of control [23]: 53%; kinase still bound, per cent of control [24]: 89%; kinase still bound, per cent of control [25]: 89%; kinase still bound, per cent of control [26]: 92%; kinase still bound, per cent of control [27]: 100%; kinase still bound, per cent of control [28]: 65%; kinase still bound, per cent of control [29]: 86%; kinase still bound, per cent of control [30]: 100%; kinase still bound, per cent of control [31]: 100%; kinase still bound, per cent of control [32]: 100%; kinase still bound, per cent of control [33]: 92%; kinase still bound, per cent of control [34]: 92%; kinase still bound, per cent of control [35]: 77%; kinase still bound, per cent of control [36]: 62%; kinase still bound, per cent of control [37]: 84%; kinase still bound, per cent of control [38]: 36%; kinase still bound, per cent of control [39]: 64%; kinase still bound, per cent of control [40]: 100%
